This is an account of results in US9107942B2, “Methods of diagnosing and treating fibrosis” (University of Rochester, priority 2008, dated 2015).

“Also recorded” adds a separate entry of the source.

Assay [1] relates to YY1 expression. In words: YY1 expression in stimulated WI-38 lung fibroblasts (immunoblot, quantitative PCR). In kind it is cell-based, human. The note with it: WI-38 cells; for YY1 transcript levels: quantitative PCR. How it is done: (§1) FIGS. 7A and 7B are immunoblots of human WI-38 cells (FIG. 7A) and mouse MLg2908 cells (FIG. 7B) treated with TGF-β. After serum starvation for 24 hours, cells were treated with 10 ng/ml of TGF-β for the indicated times in serum-free DMEM. Extracts from whole cells were subjected to immunoblot analysis with anti-YY1 or anti-β-actin antibody. FIGS. 7C and 7D are graphs showing the relative fold induction of YY-1 mRNA expression, detected by quantitative PCR, in WI-38 cells (FIG. 7C) and MLg2908 cells (FIG. 7D) treated with TGF-β. FIGS. 7E and 7F are graphs relating to the YY1 promoter activity in YY1-Luc-transfected WI-38 cells (FIG. 7E) and YY1-Luc-transfected MLg2908 cells (FIG. 7F) treated with PBS or TGF-β for 24 hours. The full-length YY1 promoter-luciferase reporter (YY1-LUC) was transfected into the cells by electroporation. Relative light units (RLU) were measured with a luminometer. Fold changes result from the RLU of stimulated cells divided by the RLU of non-stimulated cells. The data are presented with standard errors derived from at least three independent experiments performed in triplicate. *p<0.05 and **p<0.01 by the Student's t-test.
(§2) FIGS. 9A and 9B are immunoblots of human WI-38 cells (FIG. 9A) and mouse MLg2908 cells (FIG. 9B) treated with TNF-α. After serum starvation for 24 hours, cells were treated with 10 ng/ml of TNF-α for the indicated times in serum-free DMEM. Extracts from whole cells were subjected to immunoblot analysis with anti-YY1 or anti-β-actin antibody. FIGS. 9C and 9D are graphs showing the relative fold induction of YY-1 mRNA expression, detected by quantitative PCR, in WI-38 cells (FIG. 9C) and MLg2908 cells (FIG. 9D) treated with TGF-β. FIGS. 9E and 9F are graphs relating to the YY1 promoter activity in YY1-Luc-transfected WI-38 cells (FIG. 9E) and YY1-Luc-transfected MLg2908 cells (FIG. 9F) treated with TNF-α for 8 hours. The full-length YY1 promoter-luciferase reporter (YY1-LUC) was transfected into the cells by electroporation. Relative light units (RLU) were measured with a luminometer. Fold changes result from the RLU of stimulated cells divided by the RLU of non-stimulated cells. The data are presented with standard errors derived from at least three independent experiments performed in triplicate. *p<0.05, **p<0.01, and ***p<0.001 by the Student's t-test.
After serum starvation for 24 hours, cells were treated with 40 μg/ml of silica for the indicated time periods in serum-free DMEM. Extracts from WI-38 (FIG. 10A) or MLg2908 (FIG. 10B) cells were immunoblotted with anti-YY1 or anti-β-actin antibodies.
FIG. 18 is an immunoblot showing YYI in WI-38 cells that were unstimulated (“Resting”) or treated with IL-1β ([…]). Immunoblots were performed on Day 1 and Day 2 using anti-YY1 and anti-GAPDH antibodies.
Total RNA from lung tissue and lung fibroblasts was extracted using TRIzol® reagent (Invitrogen). Then, 0.5-1 μg of total RNA was reverse-transcribed using oligo dT as a primer. Quantitative PCR was performed using an iQ5 Biorad device. Data were analyzed by the 2^−Δ(Δ/CT^) method and normalized to the expression of the GAPDH housekeeping gene.
(§3) Cells or lung tissues were solubilized in lysis buffer (50 mM Tris/HCl (pH 8.0), 150 mM NaCl, 0.1% SDS, 0.5% sodium deoxycholate, 0.02% Na3N, 1% Nonidet P40, 1 mM PMSF, and 2 μg/ml aprotinin). Protein concentrations were determined by a BCA assay. Protein samples (20 μg) were separated in 8-16% SDS/PAGE gels and transferred onto a nitrocellulose membrane. […]
For orientation: A western blot detects proteins with antibodies after separation by electrophoresis.

Assay [2] relates to YY1 expression. In words: YY1 expression in stimulated MLg2908 lung fibroblasts (immunoblot, quantitative PCR). The format is cell-based, mouse. The note with it: MLg2908 cells; for YY1 transcript levels: quantitative PCR; for YY1 expression: serum-free DMEM, 10 ng/ml cytokine or 40 μg/ml silica, immunoblot. On the procedure:
as §1
as §2, with “The data are presented with standard errors derived from at least three independent experiments performed in triplicate. *p<0.05, **p<0.01, and ***p<0.001 by the Student's t-test.” left out
Total RNA from lung tissue and lung fibroblasts was extracted using TRIzol® reagent (Invitrogen). […] Quantitative PCR was performed using an iQ5 Biorad device. Data were analyzed by the 2^−Δ(Δ/CT^) method and normalized to the expression of the GAPDH housekeeping gene.
Cells or lung tissues were solubilized in lysis buffer (50 mM Tris/HCl (pH 8.0), 150 mM NaCl, 0.1% SDS, 0.5% sodium deoxycholate, 0.02% Na3N, 1% Nonidet P40, 1 mM PMSF, and 2 μg/ml aprotinin). Protein concentrations were determined by a BCA assay. […]

Assay [3] relates to YY1 promoter. In words: YY1 promoter-luciferase reporter (YY1-LUC) in WI-38 cells. The format is cell-based, human. Conditions: YY1-Luc-transfected WI-38 cells. How it is done:
as §1, with “The data are presented with standard errors derived from at least three independent experiments performed in triplicate. *p<0.05 and **p<0.01 by the Student's t-test.” left out
(§4) FIGS. 9A and 9B are immunoblots of human WI-38 cells (FIG. 9A) and mouse MLg2908 cells (FIG. 9B) treated with TNF-α. […] FIGS. 9C and 9D are graphs showing the relative fold induction of YY-1 mRNA expression, detected by quantitative PCR, in WI-38 cells (FIG. 9C) and MLg2908 cells (FIG. 9D) treated with TGF-β. […] Relative light units (RLU) were measured with a luminometer. […]
On the technique in general: In a reporter assay the amount or activity of a reporter protein is the signal.

Assay [4] concerns YY1 promoter. In words: YY1 promoter-luciferase reporter (YY1-LUC) in MLg2908 cells. The format is cell-based, mouse. The note with it: YY1-Luc-transfected MLg2908 cells. On the procedure: as §1, with “The data are presented with standard errors derived from at least three independent experiments performed in triplicate. *p<0.05 and **p<0.01 by the Student's t-test.” left out
as §4

The test system of assay [5] is YY1 expression. In words: YY1 western blot in IC-21 alveolar macrophages. In kind it is cell-based. The note with it: TNF-α 10 ng/ml or silica 20 μg/ml, two days. On the procedure: FIG. 11 is a western blot of unstimulated (“resting”) IC-21 alveolar macrophages or IC-21 cells stimulated with TNF-α (10 ng/ml) or silica (20 μg/ml). After two days, the cells were harvested and YY1 expression was determined using anti-YY1 and anti-GAPDH antibodies.
In addition to the indirect effects of lung inflammation, crystalline silica can activate cells directly through distinct molecular pathways (Hornung et al., “Silica Crystals and Aluminum Salts Activate the NALP3 Inflammasome Through Phagosomal Destabilization,” Nat. Immunol. 9(8):847-56 (2008); Dostert et al., “Innate Immune Activation Through Nalp3 Inflammasome Sensing of Asbestos and Silica,” Science 320(5876):674-77 (2008), each of which is hereby incorporated by reference in its entirety). Therefore, whether silica particles directly regulate YY1 expression in fibroblasts was tested by incubating cells for up to 8 hours in vitro with a fixed concentration of silica.

In the next assay the test system is human tumor cells. The note with it: cited from earlier work.
In the next assay the test system is lung fibroblasts. Conditions: cited from earlier work.
Assay [6] concerns YY1 expression. In words: YY1 immunoblot in TGF-β-stimulated WI-38 cells pre-treated with NF-κB inhibitor. The note with it: WI-38 cells pre-treated with 5 μM for one hour, then 10 ng/ml TGF-β in serum-free DMEM. In kind it is cell-based, human. On the procedure: FIG. 12A is a graph of the relative fold induction of YY1 mRNA expression in WI-38 cells transfected with a wild-type YY1 promoter construct (“YY1”). FIG. 12B is a graph of the relative fold induction of YY1 mRNA expression in WI-38 cells transfected with a mutant YY1 promoter contruct that has a disrupted NF-κB binding site (“mutant YY1”). In both cases, the cells were also transiently co-transfected with a vector control (“pSG5”) or 2.5 μg of NF-κB (“p65”) plasmid by electroporation, and then treated with PBS or 10 ng/ml of TGF-β for 24 hours. Data are presented with standard errors derived from at least three independent experiments performed in triplicate. ***P<0.001 (untreated pSG5 vs. untreated p65; TGF-β-treated pSG5 vs. TGF-β-treated p65). FIG. 12C is an immunoblot of WI-38 cells pre-treated with 5 μM of Bay 11-7085 (an NF-κB inhibitor) for one hour and then treated with 10 ng/ml of TGF-β for the indicated times in serum-free DMEM. Extracts from whole cells were immunoblotted with anti-YY1 or anti-β-actin antibody.
as §3

A further assay relates to B cells. The note with it: cited from earlier work.
Assay [7] has as its system YY1 expression. In words: YY1 immunoblot in MRC5 human adult fibroblasts. Conditions: MRC5 cells, 10 ng/ml for 8 hours. The format is cell-based. How it is done:
(§5) FIG. 8A is an immunoblot of whole cell extracts from MRC5 cells treated with TGF-β for 8 hours. FIG. 8B is a graph of the relative light units of YY1-Lluc-transfected MRC5 cells treated with phosphate-buffered saline (“0”) or TGF-β (“10”) for 24 hours. The data are presented with standard errors derived from at least three independent experiments performed in triplicate. *p<0.05 by the Student's t-test.
(§6) After serum starvation for 24 hours, MRC5 cells were treated with 10 ng/ml of TGF-β for 8 hours or 24 hours in serum-free DMEM. Extracts from whole cells treated with TGF-β for 8 hours were subjected to immunoblot analysis with anti-YY1 or anti-β-actin antibody. […] MRC5 cells transfected with the full-length YY1 promoter-luciferase reporter (YY1-LUC) by electroporation were treated with PBS or TGFβ for 24 hours, and the relative light units (RLU) were measured with a luminometer.

For assay [8], the system named is YY1 promoter. In words: YY1 promoter-luciferase reporter (YY1-LUC) in MRC5 cells. In kind it is cell-based, human. The note with it: YY1-LUC-transfected MRC5 cells, 24 hours. On the procedure:
as §5, §6

Where [9] appears, read: serum-free DMEM, 10 ng/ml cytokine or 40 μg/ml silica, immunoblot.

On to TNF-α, for which the YY1 transcript levels result in the assay with YY1 expression [1] and in the assay with YY1 expression [2] was “upregulated” in each case. The YY1 expression result in the assay with YY1 expression [1] (setting [9]) is reported as “increased”; with YY1 expression [2], “increased”; with YY1 expression [5], “neither silica nor TNF-α affected; also recorded: slightly decreased”. The YY1 promoter activity entry with YY1 promoter [3] and with YY1 promoter [4] was “upregulated” in each case.

For “IL-1β: cytokine used to treat WI-38 cells”, in the assay with YY1 expression [1] (Day 1 and Day 2, immunoblot), the YY1 expression entry was “upregulated”.

Turning to `[N]=O` [Nitric oxide], the YY1 expression result in the assay on human tumor cells and with lung fibroblasts was “inhibit” throughout.

`CC(C)(C)c1ccc(S(=O)(=O)/C=C/C#N)cc1` [Bay11-7085]: the YY1 expression result in the assay on YY1 expression [6] is given as “abolished”.

“Rituximab: anti-CD20 antibody used for treating B cell non-Hodgkin's lymphoma”: in the assay with B cells, the NF-κB expression entry is reported as “diminished” and the YY1 expression entry is “diminished”.

On to “TGF-β: profibrotic cytokine used to stimulate lung fibroblasts”, for which the YY1 transcript levels entry in the assay on YY1 expression [1] and with YY1 expression [2] was “upregulated” in each case. Moreover, the YY1 expression result with YY1 expression [1] (setting [9]) is given as “upregulated”; with YY1 expression [2], “upregulated”; in the assay on YY1 expression [7], “up-regulated”. The YY1 promoter activity entry with YY1 promoter [3] and in the assay on YY1 promoter [4] was “significantly increased” throughout. Further, the YY1-LUC activity result with YY1 promoter [8] is on record as “up-regulated”.
